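How tested: cells in 96-well plates exposed to compound for 48 hours at five concentrations. Here, GI50 denotes the concentration required for 50% inhibition of growth.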 Activity calls are given as the source filed them. Rule as the data show it: active = GI50 up to about 1.1 µM and inactive = higher.
Experiments:
Test in all cases: NCI anticancer screen, dose series, 48 h
786-0 = test system: 786-0
A498 = test system: A498
A549 = test system: A549
ACHN = test system: ACHN
BT-549 = test system: BT-549
CAKI-1 = test system: CAKI-1
CCRF-CEM = test system: CCRF-CEM
COLO 205 = test system: COLO 205
DU-145 = test system: DU-145
EKVX = test system: EKVX
HCC 2998 = test system: HCC 2998
HCT-116 = test system: HCT-116
HCT-15 = test system: HCT-15
HL-60 = test system: HL-60
HOP-62 = test system: HOP-62
HOP-92 = test system: HOP-92
HT-29 = test system: HT-29
Hs-578T = test system: Hs-578T
IGROV-1 = test system: IGROV-1
K562 = test system: K562
KM12 = test system: KM12
LOX IMVI = test system: LOX IMVI
M14 = test system: M14
MCF7 = test system: MCF7
MDA-MB-231 = test system: MDA-MB-231
MDA-MB-435 = test system: MDA-MB-435
MDA-N = test system: MDA-N
MOLT-4 = test system: MOLT-4
Malme-3M = test system: Malme-3M
NCI-H226 = test system: NCI-H226
NCI-H23 = test system: NCI-H23
NCI-H460 = test system: NCI-H460
NCI-H522 = test system: NCI-H522
NCI/ADR-RES = test system: NCI/ADR-RES
OVCAR-3 = test system: OVCAR-3
OVCAR-4 = test system: OVCAR-4
OVCAR-5 = test system: OVCAR-5
OVCAR-8 = test system: OVCAR-8
PC-3 = test system: PC-3
RPMI-8226 = test system: RPMI-8226
RXF 393 = test system: RXF 393
SF-268 = test system: SF-268
SF-295 = test system: SF-295
SF-539 = test system: SF-539
SK-MEL-28 = test system: SK-MEL-28
SK-MEL-2 = test system: SK-MEL-2
SK-MEL-5 = test system: SK-MEL-5
SK-OV-3 = test system: SK-OV-3
SN12C = test system: SN12C
SNB-19 = test system: SNB-19
SNB-75 = test system: SNB-75
SW-620 = test system: SW-620
T47D = test system: T47D
U-251 = test system: U-251
UACC-62 = test system: UACC-62
UO-31 = test system: UO-31
TK-10 = test system: TK-10
UACC-257 = test system: UACC-257

In the case of Cn1c(SCc2ccc([N+](=O)[O-])cc2)nnc1C12CC3CC(CC(C3)C1)C2, the GI50 (786-0) was > 10 µM (inactive), the GI50 (A498) was > 10 µM (inactive) and the GI50 (A549) was > 10 µM (inactive). The GI50 (ACHN) was > 10 µM (inactive), the GI50 (BT-549) was > 10 µM (inactive) and the GI50 (CAKI-1) was > 10 µM (inactive). For the same compound, the GI50 (CCRF-CEM) was > 10 µM (inactive), the GI50 (COLO 205) was > 10 µM (inactive) and the GI50 (DU-145) was > 10 µM (inactive). For the same compound, the GI50 (EKVX) was > 10 µM (inactive), the GI50 (HCC 2998) was > 10 µM (inactive) and the GI50 (HCT-116) was > 10 µM (inactive). For the same compound, the GI50 (HCT-15) was greater than 10 µM, the GI50 (HL-60) was > 10 µM (inactive) and the GI50 (HOP-62) was > 10 µM (inactive). The GI50 (HOP-92) was > 10 µM (inactive), the GI50 (HT-29) was > 10 µM (inactive) and the GI50 (Hs-578T) was > 10 µM (inactive). For the same compound, the GI50 (IGROV-1) was > 10 µM (inactive), the GI50 (K562) was > 10 µM (inactive) and the GI50 (KM12) was > 10 µM (inactive). The GI50 (LOX IMVI) was > 10 µM (inactive), the GI50 (M14) was > 10 µM (inactive) and the GI50 (MCF7) was > 10 µM (inactive). The GI50 (MDA-MB-231) was > 10 µM (inactive), the GI50 (MDA-MB-435) was > 10 µM (inactive) and the GI50 (MDA-N) was > 10 µM (inactive). For the same compound, the GI50 (MOLT-4) was > 10 µM (inactive), the GI50 (Malme-3M) was > 10 µM (inactive) and the GI50 (NCI-H226) was > 10 µM (inactive). For the same compound, the GI50 (NCI-H23) was > 10 µM (inactive), the GI50 (NCI-H460) was > 10 µM (inactive) and the GI50 (NCI-H522) was > 10 µM (inactive). For the same compound, the GI50 (NCI/ADR-RES) was > 10 µM (inactive), the GI50 (OVCAR-3) was > 10 µM (inactive) and the GI50 (OVCAR-4) was > 10 µM (inactive). The GI50 (OVCAR-5) was > 10 µM (inactive), the GI50 (OVCAR-8) was > 10 µM (inactive) and the GI50 (PC-3) was > 10 µM (inactive). For the same compound, the GI50 (RPMI-8226) was > 10 µM (inactive), the GI50 (RXF 393) was > 10 µM (inactive) and the GI50 (SF-268) was > 10 µM (inactive). The GI50 (SF-295) was > 10 µM (inactive), the GI50 (SF-539) was > 10 µM (inactive) and the GI50 (SK-MEL-28) was > 10 µM (inactive). The GI50 (SK-MEL-2) was > 10 µM (inactive), the GI50 (SK-MEL-5) was > 10 µM (inactive) and the GI50 (SK-OV-3) was > 10 µM (inactive). The GI50 (SN12C) was > 10 µM (inactive), the GI50 (SNB-19) was > 10 µM (inactive) and the GI50 (SNB-75) was 4.66 µM (inactive). The GI50 (SW-620) was > 10 µM (inactive), the GI50 (T47D) was > 10 µM (inactive) and the GI50 (U-251) was > 10 µM (inactive). For the same compound, the GI50 (UACC-62) was > 10 µM (inactive) and the GI50 (UO-31) was > 10 µM (inactive).

CCCCCc1cccc(=O)o1 was tested, and the GI50 (786-0) was > 100 µM (inactive), the GI50 (A498) was 57.9 µM (inactive) and the GI50 (A549) was > 100 µM (inactive). The GI50 (ACHN) was > 100 µM (inactive), the GI50 (BT-549) was > 100 µM (inactive) and the GI50 (CAKI-1) was > 100 µM (inactive). The GI50 (CCRF-CEM) was > 100 µM (inactive), the GI50 (COLO 205) was > 100 µM (inactive) and the GI50 (DU-145) was > 100 µM (inactive). For the same compound, the GI50 (EKVX) was > 100 µM (inactive), the GI50 (HCC 2998) was > 100 µM (inactive) and the GI50 (HCT-116) was > 100 µM (inactive). The GI50 (HCT-15) was greater than 100 µM, the GI50 (HL-60) was > 100 µM (inactive) and the GI50 (HOP-62) was > 100 µM (inactive). The GI50 (HOP-92) was 44.2 µM (inactive), the GI50 (HT-29) was > 100 µM (inactive) and the GI50 (Hs-578T) was > 100 µM (inactive). The GI50 (IGROV-1) was > 100 µM (inactive), the GI50 (K562) was > 100 µM (inactive) and the GI50 (KM12) was > 100 µM (inactive). For the same compound, the GI50 (LOX IMVI) was > 100 µM (inactive), the GI50 (M14) was > 100 µM (inactive) and the GI50 (MCF7) was > 100 µM (inactive). For the same compound, the GI50 (MDA-MB-231) was > 100 µM (inactive), the GI50 (MDA-MB-435) was > 100 µM (inactive) and the GI50 (MDA-N) was > 100 µM (inactive). The GI50 (MOLT-4) was > 100 µM (inactive), the GI50 (Malme-3M) was > 100 µM (inactive) and the GI50 (NCI-H226) was > 100 µM (inactive). For the same compound, the GI50 (NCI-H23) was > 100 µM (inactive), the GI50 (NCI-H460) was > 100 µM (inactive) and the GI50 (NCI-H522) was > 100 µM (inactive). The GI50 (NCI/ADR-RES) was > 100 µM (inactive), the GI50 (OVCAR-3) was > 100 µM (inactive) and the GI50 (OVCAR-4) was > 100 µM (inactive). The GI50 (OVCAR-5) was > 100 µM (inactive), the GI50 (OVCAR-8) was > 100 µM (inactive) and the GI50 (PC-3) was > 100 µM (inactive). For the same compound, the GI50 (RPMI-8226) was > 100 µM (inactive), the GI50 (RXF 393) was > 100 µM (inactive) and the GI50 (SF-268) was > 100 µM (inactive). The GI50 (SF-295) was > 100 µM (inactive), the GI50 (SF-539) was > 100 µM (inactive) and the GI50 (SK-MEL-28) was > 100 µM (inactive). For the same compound, the GI50 (SK-MEL-2) was > 100 µM (inactive), the GI50 (SK-MEL-5) was > 100 µM (inactive) and the GI50 (SK-OV-3) was > 100 µM (inactive). The GI50 (SN12C) was > 100 µM (inactive), the GI50 (SNB-19) was > 100 µM (inactive) and the GI50 (SW-620) was > 100 µM (inactive). The GI50 (T47D) was > 100 µM (inactive), the GI50 (TK-10) was > 100 µM (inactive) and the GI50 (U-251) was > 100 µM (inactive). For the same compound, the GI50 (UACC-257) was > 100 µM (inactive), the GI50 (UACC-62) was > 100 µM (inactive) and the GI50 (UO-31) was > 100 µM (inactive).
